# Target: T1, PPARG (peroxisome proliferator activated receptor-gamma), GST-PPARG-LBD (Homo sapiens, UniProt P37231)
# T1 construct: 15 μL of 5 nM GST-PPARG-LBD and 5 nM Tb-GST-antibody were added; purchased Invitrogen PV4894
# T1 sequence (P37231 238-503 limits assumed): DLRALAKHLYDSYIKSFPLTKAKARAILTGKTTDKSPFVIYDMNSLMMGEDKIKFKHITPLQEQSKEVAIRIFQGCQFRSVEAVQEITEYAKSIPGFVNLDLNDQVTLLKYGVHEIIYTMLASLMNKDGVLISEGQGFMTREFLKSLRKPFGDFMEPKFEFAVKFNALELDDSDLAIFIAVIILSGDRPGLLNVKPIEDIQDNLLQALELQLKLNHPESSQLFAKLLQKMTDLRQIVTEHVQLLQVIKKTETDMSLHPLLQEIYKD
# Experiment: LanthaScreen TR-FRET PPARG Competitive Binding Assay
# Design: key: “+” indicates the degree of the binding activity, and as the number of “+” increases, the binding activity is stronger; ++: “+” indicates the degree of the binding activity, and as the number of “+” increases, the binding activity is stronger; +++: “+” indicates the degree of the binding activity, and as the number of “+” increases, the binding activity is stronger; ++++: “+” indicates the degree of the binding activity, and as the number of “+” increases, the binding activity is stronger
# Conditions: degree of binding activity
# Method: The following experiment was performed to evaluate the PPARG (peroxisome proliferator activated receptor-gamma) binding capacity and transcriptional activity of the compounds prepared in the examples of the invention. For the experiment, LanthaScreen™ TR-FRET PPARG Competitive Binding Assay Kit (PV4894, Invitrogen) was used according to the manufacturer's instruction. […] The mixture was loaded in a 384-well plate (Greiner, 784075) by 20 μL per well, followed by reaction at room temperature for 1 hour. Upon completion of the reaction, fluorescence value was measured by using Flexstation 3 (Molecular Devices) with time-resolved fluorescence (RFU) mode (excitation 1: 340 nm, emission 1: 518 nm, excitation 2: 340 nm, emission 2: 488 nm, integration delay 50 μs, integration 400 μs). The results were calculated by using 518 nm RFUs/488 nm RFUs ratio. The activity of the compounds of the invention was compared with that of the vehicle, which was calculated by ratio according to the formula [100%−compound of the example ratio/vehicle ratio]. At this time, the binding activity ratio to rosiglitazone was compared.
row,SMILES,Binding assay (1 μLM)
1,"Cc1ccc([C@H](C)NC(=O)c2ccc3c(c2)OCCN3Cc2ccccc2-c2ccc(C(N)=O)cc2)cc1F [Example 148, (S)-4-((4′-carbamoyl-[1,1′-biphenyl]-2-yl)methyl)-N-(1-(3-fluoro-4-methylphenyl)ethyl)-3,4-dihydro-2H-benzo[b][1,4]oxazine-7-carboxamide]",++
2,"Cc1ccc([C@H](C)NC(=O)c2ccc3c(c2)CCCN3Cc2ccc(-c3ccccc3C(=O)O)cc2)cc1F [Example 5, (S)-4′-((6-((1-(3-fluoro-4-methylphenyl)ethyl)carbamoyl)-3,4-dihydroquinoline-1(2H)-yl)methyl)-[1,1′-biphenyl]-2-caboxylic acid]",++
3,"C[C@H](NC(=O)c1ccc2c(c1)OCCN2Cc1ccc(-c2ccccc2C(=O)O)cc1)c1ccc(OC(F)(F)F)cc1 [Example 75, (S)-4′-((7-((1-(4-(trifluoromethoxy)phenyl)ethyl)carbamoyl)-2H-benzo[b][1,4]oxazine-4(3H)-yl)methyl)-[1,1′-biphenyl]-2-carboxylic acid]",+++
4,"C[C@H](NC(=O)c1ccc2c(c1)CCCN2Cc1ccc(-c2ccccc2C(=O)O)cc1)c1ccc(F)cc1 [Example 6, (S)-4′-((6-((1-(4-fluorophenyl)ethyl)carbamoyl)-3,4-dihydroquinoline-1(2H)-yl)methyl)-[1,1′-biphenyl]-2-caboxylic acid]",+++
5,"NC(=O)c1ccccc1-c1ccc(CN2CCOc3cc(C(=O)NCc4cccnc4)ccc32)cc1 [Example 97, 4-((2′-carbamoyl-[1,1′-biphenyl]-4-yl)methyl)-N-(pyridine-3-ylmethyl)-3,4-dihydro-2H-benzo[b][1,4]oxazine-7-carboxamide]",+
6,"C[C@H](NC(=O)c1ccc2c(c1)OCCN2Cc1ccc(-c2ccccc2C(=O)O)cc1)c1ccc(F)cc1 [Example 63, (S)-4′-((7-((1-(4-fluorophenyl)ethyl)carbamoyl)-2H-benzo[b][1,4]oxazine-4(3H)-yl)methyl)-[1,1′-biphenyl]-2-carboxylic acid]",+
7,"C[C@H](NC(=O)c1ccc2c(c1)OCCN2Cc1ccccc1-c1ccc(C(=O)O)cc1)c1ccccc1 [Example 142, (S)-2′-((7-((1-phenylethyl)carbamoyl)-2H-benzo[b][1,4]oxazine-4(3H)-yl)methyl)-[1,1′-biphenyl]-4-carboxylic acid]",++
8,"Cc1ccc([C@H](C)NC(=O)c2ccc3c(c2)OCCN3Cc2ccccc2-c2ccc(C(=O)O)cc2)cc1F [Example 145, (S)-2′-((7-((1-(3-fluoro-4-methylphenyl)ethyl)carbamoyl)-2H-benzo[b][1,4]oxazine-4(3H)-yl)methyl)-[1,1′-biphenyl]-4-carboxylic acid]",++
9,"Cc1ccc([C@H](C)NC(=O)c2ccc3c(c2)CCCN3Cc2cc(-c3ccccc3C(N)=O)ccc2F)cc1F [Example 141, (S)-1-((2′-carbamoyl-4-fluoro-[1,1′-biphenyl]-3-yl)methyl)-N-(1-(3-fluoro-4-methylphenyl)ethyl)-1,2,3,4-tetrahydroquinoline-6-carboxamide]",+++
10,"C[C@H](NC(=O)c1ccc2c(c1)CCCN2Cc1ccc(-c2ccccc2C(=O)O)cc1)c1ccc(Br)cc1 [Example 7, (S)-4′-((6-((1-(4-bromophenyl)ethyl)carbamoyl)-3,4-dihydroquinoline-1(2H)-yl)methyl)-[1,1′-biphenyl]-2-caboxylic acid]",++++
11,"C[C@H](NC(=O)c1ccc2c(c1)OCCN2Cc1ccc(-c2ccccc2C(N)=O)cc1)c1ccc(SC(F)(F)F)cc1 [Example 99, (S)-4-((2′-carbamoyl-[1,1′-biphenyl]-4-yl)methyl)-N-(1-(4-((trifluoromethyl)thio)phenyl)ethyl)-3,4-dihydro-2H-benzo[b][1,4]oxazine-7-carboxamide]",+++
12,"C[C@H](NC(=O)c1ccc2c(c1)CCCN2Cc1ccc(-c2ccccc2C(N)=O)cc1)c1ccc(OC(F)(F)F)cc1 [Example 34, (S)-1-((2′-carbamoyl-[1,1′-biphenyl]-4-yl)methyl)-N-(1-(4-(trifluoromethoxy)phenyl)ethyl)-1,2,3,4-tetrahydroquinoline-6-carboxamide]",++++
13,"NC(=O)c1ccccc1-c1ccc(CN2CCCc3cc(C(=O)NCc4ccccc4Br)ccc32)cc1 [Example 51, N-(2-bromobenzyl)-1-((2′-carbamoyl-[1,1′-biphenyl]-4-yl)methyl)-1,2,3,4-tetrahydroquinoline-6-carboxamide]",+++
14,"O=C(NCc1ccccc1)c1ccc2c(c1)OCCN2Cc1ccc(-c2ccccc2C(=O)O)cc1 [Example 91, 4′-((7-(benzylcarbamoyl)-2H-benzo[b][1,4]oxazine-4(3H)-yl)methyl)-[1,1′-biphenyl]-2-carboxylic acid]",+++
15,"O=C(NCc1ccncc1)c1ccc2c(c1)OCCN2Cc1ccc(-c2ccccc2C(=O)O)cc1 [Example 90, 4′-((7-((pyridine-4-ylmethyl)carbamoyl)-2H-benzo[b][1,4]oxazine-4(3H)-yl)methyl)-[1,1′-biphenyl]-2-carboxylic acid]",+
16,"O=C(NCc1ccccc1Br)c1ccc2c(c1)CCCN2Cc1ccc(-c2ccccc2C(=O)O)cc1 [Example 29, 4′-((6-((2-bromobenzyl)carbamoyl)-3,4-dihydroquinoline-1(2H)-yl)methyl)-[1,1′-biphenyl]-2-carboxylic acid]",++++
17,"C[C@H](NC(=O)c1ccc2c(c1)CCCN2Cc1cccc(-c2ccccc2C(=O)O)c1)c1ccc2ccccc2c1 [Example 120, (S)-3′-((6-((1-(naphthalene-2-yl)ethyl)carbamoyl)-3,4-dihydroquinoline-1(2H)-yl)methyl)-[1,1′-biphenyl]-2-carboxylic acid]",++++
18,"O=C(NCc1ccco1)c1ccc2c(c1)OCCN2Cc1ccc(-c2ccccc2C(=O)O)cc1 [Example 69, 4′-((7-((furan-2-ylmethyl)carbamoyl)-2H-benzo[b][1,4]oxazine-4(3H)-yl)methyl)-[1,1′-biphenyl]-2-carboxylic acid-A]",+
19,"Cc1ccc([C@H](C)NC(=O)c2ccc3c(c2)CCCN3Cc2ccc(-c3ccccc3C(=O)O)cc2F)cc1F [Example 111, (S)-3′-fluoro-4′-((6-((1-(3-fluoro-4-methylphenyl)ethyl)carbamoyl)-3,4-dihydroquinoline-1(2H)-yl)methyl)-[1,1′-biphenyl]-2-caboxylic acid]",++++
20,"O=C(NCc1ccc(Br)cc1)c1ccc2c(c1)CCCN2Cc1ccc(-c2ccccc2C(=O)O)cc1 [Example 31, 4′-((6-((4-bromobenzyl)carbamoyl)-3,4-dihydroquinoline-1 (2H)-yl)methyl)-[1,1′-biphenyl]-2-carboxylic acid]",++++
21,"C[C@H](NC(=O)c1ccc2c(c1)OCCN2Cc1ccccc1-c1ccc(C(N)=O)cc1)c1ccc([N+](=O)[O-])cc1 [Example 150, (S)-4-((4′-carbamoyl-[1,1′-biphenyl]-2-yl)methyl)-N-(1-(4-nitrophenyl)ethyl)-3,4-dihydro-2H-benzo[b][1,4]oxazine-7-carboxamide]",++
22,"Cc1ccc([C@H](C)NC(=O)c2ccc3c(c2)CCCN3Cc2ccccc2-c2ccc(C(=O)O)cc2)cc1F [Example 154, (S)-2′-((6-((1-(3-fluoro-4-methylphenyl)ethyl)carbamoyl)-3,4-dihydroquinoline-1(2H)-yl)methyl)-[1,1′-biphenyl]-4-carboxylic acid]",+
23,O=C(NC1COc2ccccc2C1)c1ccc2c(c1)OCCN2Cc1ccc(-c2ccccc2C(=O)O)cc1 (centres unmarked) [Example 82],+++
24,"Cc1ccc([C@H](C)NC(=O)c2ccc3c(c2)CCCN3Cc2cccc(-c3ccccc3C(N)=O)c2F)cc1F [Example 133, (S)-1-((2′-carbamoyl-2-fluoro-[1,1′-biphenyl]-3-yl)methyl)-N-(1-(3-fluoro-4-methylphenyl)ethyl)-1,2,3,4-tetrahydroquinoline-6-carboxamide]",+++
25,"Cc1ccc([C@H](C)NC(=O)c2ccc3c(c2)CCCN3Cc2ccc(-c3ccccc3C(N)=O)cc2F)cc1F [Example 114, (S)-1-((2′-carbamoyl-3-fluoro-[1,1′-biphenyl]-4-yl)methyl)-N-(1-(3-fluoro-4-methylphenyl)ethyl)-1,2,3,4-tetrahydroquinoline-6-carboxamide]",+++
26,"O=C(NCc1ccc([N+](=O)[O-])cc1)c1ccc2c(c1)OCCN2Cc1ccc(-c2ccccc2C(=O)O)cc1 [Example 66, 4′-((7-((4-nitrobenzyl)carbamoyl)-2H-benzo[b][1,4]oxazine-4(3H)-yl)methyl)-[1,1′-biphenyl]-2-carboxylic acid]",+

# From patent US20160355483A1, “COMPOUND BINDING TO PPARG BUT NOT ACTING AS PROMOTER AND PHARMACEUTICAL COMPOSITION FOR TREATING PPARG-RELATED DISEASES CONTAINING SAME AS ACTIVE INGREDIENT” (Hyundai Pharm Co., Ltd., priority 2014, published 2016)
